# Source: PubChem BioAssay AID2060908 (Molecular Pharmacology Branch, DTP, NCI, 2025)
# pIC50: −log10 of the molar value.
# Test system: 186277-243-T-J2-PDC complex spheroids, viability
# Test: Anticancer human tumor 186277-243-T-J2-PDC patient-derived colon adenocarcinoma cell line growth inhibition [RAS]
# Conditions: for pIC50: curve of first compound; for viability, T/C: stronger effect = lower value
# Text: RAS pathway inhibitors in Combinations in Complex Spheroids
# A high-throughput screen of multi-cell type tumor spheroids was designed to identify active combinations of RAS pathway inhibitors and targeted small molecules. Complex spheroids include a stromal component modeled by human endothelial cells (HUVEC) and fibroblasts modeled by human mesenchymal stem cells (MSCs). The concentration ranges selected for each drug and investigational agent were based upon clinically achievable concentrations if the clinical Cmax of the agent was known.
# Compounds. The drugs and investigational agents: abemaciclib (NSC768073), cobimetinib (NSC768068), divarasib (GDC6063, NSC841802), docetaxel (NSC628503), GDC-1971 (RLY-1971, NSC841576), gemcitabine (NSC613327), inavolisib (NSC800729), ipatasertib (NSC767898), KB-0742 (NSC834161), MRTX-1133 (NSC836407), osimertinib (NSC779217), RMC-4630 (NSC839698), RMC-6236 (NSC851965), RMC-6291 (NSC852671), Ro-3306 (NSC812927), sapanisertib (NSC764658), SN-38 (NSC673596), staurosporine (NSC755774), SY5609 (NSC837396), and tovorafenib (DAY101, NSC766906), were obtained from the National Cancer Institute (NCI) Developmental Therapeutics Program Chemical Repository. The FDA-approved anticancer drug set is available from the NCI Developmental Therapeutics Program. […] The stock solutions were prepared in dimethyl sulfoxide (DMSO, Sigma-Aldrich, St. Louis, MO, cat. D2650) at 800-fold the tested concentration and stored at -70 degrees C prior to their use. All drugs and investigational agents were tested over a range starting from a high concentration at or near the clinical Cmax and decreasing in half-log increments. If the clinical Cmax for an agent had not been determined, the highest concentration tested was 10 microM.
# Cell Culture. All cells were maintained in an incubator at 37 degrees C and 5% CO2 with 95% humidity. The PDC lines were cultured according to standard operating procedures established by the NCI PDMR. All PDCs were thawed and cultured in Matrigel-coated flasks prepared with a working solution of 1X Ham's F-12 nutrient mix, without supplementation (Invitrogen, Waltham, MA, cat. 11765054), 100 U/mL penicillin-streptomycin (Invitrogen, cat. 15140122), and 2.5% Matrigel (Corning Inc., Corning, NY, cat. 354248) for the first three passages. The 362531-283-R-J2-PDC and 782815-120-R-J1-PDC lines were cultured in 6C/Colon 1B media, which includes advanced DMEM/F-12 (Thermo Fisher Scientific, cat. 12634028), 10 mM HEPES (Thermo Fisher Scientific, cat. 15630080), 1X GlutaMAX supplement (Thermo Fisher Scientific, cat. 35050061), 0.1 mg/mL primocin (InvivoGen, San Diego, CA, cat. ant-pm-2), 10% defined fetal bovine serum, heat inactivated (HyClone Laboratories Inc., Logan, UT, cat. SH30070.03HI), 50% L-WRN conditioned media (ATCC, cat. CRL-3276), 1.25 mM N-Acetyl-L-cysteine (Sigma-Aldrich, cat. A9165), 10 mM nicotinamide (Sigma-Aldrich, cat. N0636), 1X B-27 supplement (Thermo Fisher Scientific, cat. 17504044), 1X N-2 supplement (Thermo Fisher Scientific, cat. 17502048), 50 ng/mL human EGF (Thermo Fisher Scientific, cat. PHG0311), and 10 microM Y-27632 dihydrochloride (Tocris Bioscience, cat. 1254). The K12877-001-R-J1-PDC line was cultured in 6I media, which includes all 6C/Colon 1B media plus 10 ng/mL human FGF-10 (PeproTech, cat. 100-26), 1 ng/mL human FGF-2 (PeproTech, cat. 100-18B), 1 µM prostaglandin E2 (Tocris Bioscience, cat. 2296), […] hydrocortisone (Sigma-Aldrich, cat. H4001), and […] bovine insulin (Sigma-Aldrich, cat. I6634). The K86415-001-R-J1-PDC line was cultured in 6D media, which includes all 6C/Colon 1B media components minus the L-WRN conditioned media. The 485176-168-R4-J1-PDC was cultured in PANC media, which includes all 6C/Colon 1B media plus 100 ng/mL human FGF-10 (PeproTech, cat. 100-26), 500 nM SB-431542 (Selleckchem, cat. S1067), and 10 nM gastrin (Tocris Bioscience, cat. 3006). […]
# [1] = second compound 0.000949 µM, first compound 0.00316 µM
# [2] = second compound 0.000949 µM, first compound 0.01 µM
# [3] = second compound 0.000949 µM, first compound 0.0316 µM
# [4] = second compound 0.000949 µM, first compound 0.1 µM
# [5] = second compound 0.000949 µM, first compound 0.316 µM
# [6] = second compound 0.000949 µM, first compound 1 µM
# [7] = second compound 0.003 µM, first compound 0.00316 µM
# [8] = second compound 0.003 µM, first compound 0.01 µM
# [9] = second compound 0.003 µM, first compound 0.0316 µM
# [10] = second compound 0.003 µM, first compound 0.1 µM
# [11] = second compound 0.003 µM, first compound 0.316 µM
# [12] = second compound 0.003 µM, first compound 1 µM
# [13] = second compound 0.00949 µM, first compound 0.00316 µM
# [14] = second compound 0.00949 µM, first compound 0.01 µM
# [15] = second compound 0.00949 µM, first compound 0.0316 µM
# [16] = second compound 0.00949 µM, first compound 0.1 µM
# [17] = second compound 0.00949 µM, first compound 0.316 µM
# [18] = second compound 0.00949 µM, first compound 1 µM
# [19] = second compound 0.03 µM, first compound 0.00316 µM
# [20] = second compound 0.03 µM, first compound 0.01 µM
# [21] = second compound 0.03 µM, first compound 0.0316 µM
# [22] = second compound 0.03 µM, first compound 0.1 µM
# [23] = second compound 0.03 µM, first compound 0.316 µM
# [24] = second compound 0.03 µM, first compound 1 µM
# [25] = second compound 0.0949 µM, first compound 0.00316 µM
# [26] = second compound 0.0949 µM, first compound 0.01 µM
# [27] = second compound 0.0949 µM, first compound 0.0316 µM
# [28] = second compound 0.0949 µM, first compound 0.1 µM
# [29] = second compound 0.0949 µM, first compound 0.316 µM
# [30] = second compound 0.0949 µM, first compound 1 µM
# [31] = second compound 0.3 µM, first compound 0.00316 µM
# [32] = second compound 0.3 µM, first compound 0.01 µM
# [33] = second compound 0.3 µM, first compound 0.0316 µM
# [34] = second compound 0.3 µM, first compound 0.1 µM
# [35] = second compound 0.3 µM, first compound 0.316 µM
# [36] = second compound 0.3 µM, first compound 1 µM
# 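Also: spheroids exposed to compounds for 7 days before viability read.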
compound,measurement,setting,value
C=CC(=O)Nc1cc(Nc2nccc(-c3cn(C)c4ccccc34)n2)c(OC)cc1N(C)CCN(C)C + CCn1c(-c2cccnc2C(C)OC)c2c3cc(ccc31)N1CCOC(CC(NC(=O)C(C(C)C)N(C)C(=O)C3(F)CCN(C(=O)C#CC(C)(C)N(C)C)CC3)C(=O)N3CCCC(N3)C(=O)OCC(C)(C)C2)C1,pIC50,second compound 0.000949 µM,< 6.00
same,pIC50,second compound 0.003 µM,< 6.00
same,pIC50,second compound 0.00949 µM,< 6.00
same,pIC50,second compound 0.03 µM,< 6.00
same,pIC50,second compound 0.0949 µM,< 6.00
same,pIC50,second compound 0.3 µM,< 6.00
same,"viability, T/C",[1],94.2%
same,"viability, T/C",[2],86.9%
same,"viability, T/C",[3],90.4%
same,"viability, T/C",[4],83.8%
same,"viability, T/C",[5],103%
same,"viability, T/C",[6],95.7%
same,"viability, T/C",[7],101%
same,"viability, T/C",[8],107%
same,"viability, T/C",[9],107%
same,"viability, T/C",[10],109%
same,"viability, T/C",[11],110%
same,"viability, T/C",[12],91.6%
same,"viability, T/C",[13],116%
same,"viability, T/C",[14],107%
same,"viability, T/C",[15],111%
same,"viability, T/C",[16],104%
same,"viability, T/C",[17],121%
same,"viability, T/C",[18],81%
same,"viability, T/C",[19],96.9%
same,"viability, T/C",[20],97.4%
same,"viability, T/C",[21],106%
same,"viability, T/C",[22],91.8%
same,"viability, T/C",[23],101%
same,"viability, T/C",[24],82.2%
same,"viability, T/C",[25],109%
same,"viability, T/C",[26],123%
same,"viability, T/C",[27],119%
same,"viability, T/C",[28],123%
same,"viability, T/C",[29],106%
same,"viability, T/C",[30],78.3%
same,"viability, T/C",[31],105%
same,"viability, T/C",[32],105%
same,"viability, T/C",[33],109%
same,"viability, T/C",[34],103%
same,"viability, T/C",[35],82.8%
same,"viability, T/C",[36],73.1%
C=CC(=O)N1CCN(c2nc(OCC3CCCN3C)nc3c(F)c(-c4nc(N)cc(C)c4C(F)(F)F)c(Cl)cc23)C(C)C1 (centres undefined) + CCn1c(-c2cc(N3CCN(C)CC3)cnc2C(C)OC)c2c3cc(ccc31)-c1csc(n1)CC(NC(=O)C1CC1C)C(=O)N1CCCC(N1)C(=O)OCC(C)(C)C2,pIC50,second compound 0.000949 µM,< 6.00
same,pIC50,second compound 0.003 µM,< 6.00
same,pIC50,second compound 0.00949 µM,> 8.50
same,pIC50,second compound 0.03 µM,> 8.50
same,pIC50,second compound 0.0949 µM,> 8.50
same,pIC50,second compound 0.3 µM,> 8.50
same,"viability, T/C",[1],100%
same,"viability, T/C",[2],95.3%
same,"viability, T/C",[3],97.8%
same,"viability, T/C",[4],82%
same,"viability, T/C",[5],96%
same,"viability, T/C",[6],95.7%
same,"viability, T/C",[7],93.8%
same,"viability, T/C",[8],79%
same,"viability, T/C",[9],74.8%
same,"viability, T/C",[10],100%
same,"viability, T/C",[11],90.7%
same,"viability, T/C",[12],91.3%
same,"viability, T/C",[13],50.9%
same,"viability, T/C",[14],43.2%
same,"viability, T/C",[15],45.5%
same,"viability, T/C",[16],47%
same,"viability, T/C",[17],49.9%
same,"viability, T/C",[18],42.9%
same,"viability, T/C",[19],15.2%
same,"viability, T/C",[20],15.7%
same,"viability, T/C",[21],14%
same,"viability, T/C",[22],15.6%
same,"viability, T/C",[23],16.7%
same,"viability, T/C",[24],13.9%
same,"viability, T/C",[25],7.43%
same,"viability, T/C",[26],6.42%
same,"viability, T/C",[27],6.99%
same,"viability, T/C",[28],6.92%
same,"viability, T/C",[29],7.72%
same,"viability, T/C",[30],6.75%
same,"viability, T/C",[31],6.06%
same,"viability, T/C",[32],5.29%
same,"viability, T/C",[33],6.03%
same,"viability, T/C",[34],5.77%
same,"viability, T/C",[35],6.02%
same,"viability, T/C",[36],5.32%
